Key:
[1] = target: T1, human GPR84 receptor (Homo sapiens, UniProt Q9NQS5); experiment: Gαi biosensor BRET assay (GPR84 antagonism vs agonist ZQ-16); type: cell-based; conditions: HEK293 cells, 200 nmol/L agonist ZQ-16; for IC50: Gαi biosensor BRET assay; for inhibition at 2 µM: tested at 2 μM (concentration code A); for inhibition at 10 µM: tested at 10 μM (concentration code D)
T1 construct: host or cells: HEK293, transiently transfected
In short: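 HEK293 cells transiently expressing GPR84, Gαi2-Rluc8, GFP10-Gγ2 and Gβ1 were pre-incubated with compounds 5 min at 37 °C in Tyrode's buffer pH 7.5, then stimulated with 200 nmol/L ZQ-16 for 5 min at room temperature. BRET2 (acceptor/donor ratio) read after 5 μmol/L coelenterazine 400A, background- and vehicle-corrected.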

[2] = test system: dextran sodium sulfate-induced chronic inflammatory bowel disease; conditions: mouse; once-daily doses of 3 and 10 mg/kg; cited from earlier work

T1 sequence (Q9NQS5 whole entry): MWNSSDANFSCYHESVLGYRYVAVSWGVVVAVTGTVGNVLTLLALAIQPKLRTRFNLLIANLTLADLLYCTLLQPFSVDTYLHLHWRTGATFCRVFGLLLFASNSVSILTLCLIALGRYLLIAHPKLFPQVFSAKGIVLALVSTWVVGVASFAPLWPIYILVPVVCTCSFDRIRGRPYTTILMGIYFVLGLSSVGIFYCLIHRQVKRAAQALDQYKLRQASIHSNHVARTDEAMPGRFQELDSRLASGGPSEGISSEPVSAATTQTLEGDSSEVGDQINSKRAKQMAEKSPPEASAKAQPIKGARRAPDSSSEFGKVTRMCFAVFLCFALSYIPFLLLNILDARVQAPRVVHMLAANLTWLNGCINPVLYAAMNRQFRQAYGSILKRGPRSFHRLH

Row | SMILES | IC50 [1] [nM] | inhibition at 2 µM [1] [%] | inhibition at 10 µM [1] [%] | further results
1 | Cc1cc(OCC(=O)N(C)C)c(Br)c(=O)n1[C@H](C)c1ccc(C#CC2CC2)cc1 [Compound I-317] |  |  | 50 to 75 | 
2 | Cc1cc(OCC(=O)N2CCC[C@@H]2C(N)=O)cc(=O)n1[C@H](C)c1ccc(C#CC2CC2)cc1 [Compound I-318] | 300 to 1000 |  | > 75 | 
3 | Cc1cc(OCC(=O)N2C3CCC2COC3)cc(=O)n1[C@H](C)c1ccc(C#CC2CC2)cc1 [Compound I-324] | ≤ 300 | > 75 |  | 
4 | Cc1cc(OCC(=O)N2CC3CCC2CO3)cc(=O)n1[C@H](C)c1ccc(C#CC2CC2)cc1 (stereo partly shown) [Compound I-326] | 1000 to 3000 |  | > 75 | 
5 | Cc1cc(OCC(=O)N2CC3CCC2CO3)cc(=O)n1[C@H](C)c1ccc(C#CC2CC2)cc1 (stereo partly shown) [Compound I-327] | 1000 to 3000 | > 75 |  | 
6 | Cc1cc(OCc2ncn[nH]2)cc(=O)n1[C@H](C)c1ccc(C#CC2CC2)cc1 [Compound I-328] |  |  | > 75 | 
7 | Cc1cc(OCc2ncnn2C)cc(=O)n1[C@H](C)c1ccc(C#CC2CC2)cc1 [Compound I-329] | ≤ 300 | > 75 |  | 
8 | Cc1cc(OCc2nncn2C)cc(=O)n1[C@H](C)c1ccc(C#CC2CC2)cc1 [Compound I-330] | ≤ 300 | > 75 |  | 
9 | Cc1cc(OCc2nnnn2C2CC2)cc(=O)n1[C@H](C)c1ccc(C#CC2CC2)cc1 [Compound I-331] |  | > 75 |  | 
10 | Cc1cc(OCC(=O)N2CC[C@H](S(=O)(=O)N(C)C)C2)cc(=O)n1[C@H](C)c1ccc(C#CC2CC2)cc1 [Compound I-333] | 1000 to 3000 |  | > 75 | 
11 | Cc1cc(/C=C2\SC(=O)NC2=O)cc(=O)n1[C@H](C)c1ccc(C#CC2CC2)cc1 [Compound I-339] |  |  | > 75 | 
12 | Cc1cc(COCC(=O)N(C)C)cc(=O)n1[C@H](C)c1ccc(C#CC2CC2)cc1 [Compound I-340] |  |  | 50 to 75 | 
13 | Cc1cc(OCC(=O)NCCN2CCCC2)cc(=O)n1[C@H](C)c1ccc(C#CC2CC2)cc1 [Compound I-346] |  |  | 25 to 50 | 
14 | Cc1cc(OCC(=O)N(C(C)C)C(C)C)cc(=O)n1[C@H](C)c1ccc(C#CC2CC2)cc1 [Compound I-347] | 300 to 1000 |  | > 75 | 
15 | COCCNC(=O)COc1cc(C)n([C@H](C)c2ccc(C#CC3CC3)cc2)c(=O)c1 [Compound I-349] |  |  | > 75 | 
16 | Cc1cc(OCC(=O)N(C)CC(=O)O)cc(=O)n1[C@H](C)c1ccc(C#CC2CC2)cc1 [Compound I-350] |  | > 75 |  | 
17 | O=c1nc(OC[C@@H]2COCCO2)cc2n1CCc1cc(C#CC3CC3)ccc1-2 [GLPG1205] |  |  |  | disease activity index score [2]: reduced; neutrophil infiltration [2]: reduced

Second part, led by results:

Row | IC50 [1] [nM] | inhibition at 2 µM [1] [%] | inhibition at 10 µM [1] [%] | SMILES | further results
18 | ≤ 300 | > 75 |  | Cc1cc(OCC(=O)N2C[C@H](O)[C@@H](O)C2)cc(=O)n1[C@H](C)c1ccc(C#CC2CC2)cc1 [Compound I-314] | 
19 | ≤ 300 |  | > 75 | Cc1cc(OCC(=O)N2C[C@@H](O)[C@H](O)C2)cc(=O)n1[C@H](C)c1ccc(C#CC2CC2)cc1 [Compound I-315] | 
20 | ≤ 300 | > 75 |  | Cc1cc(OCC(=O)N2C[C@@H](O)[C@@H](O)C2)cc(=O)n1[C@H](C)c1ccc(C#CC2CC2)cc1 [Compound I-316] | 
21 | ≤ 300 | > 75 |  | Cc1cc(OCC(=O)N2CCC3(CC3)C2)cc(=O)n1[C@H](C)c1ccc(C#CC2CC2)cc1 [Compound I-319] | 
22 | ≤ 300 |  | > 75 | Cc1cc(OCC(=O)N2CCCC23CC3)cc(=O)n1[C@H](C)c1ccc(C#CC2CC2)cc1 [Compound I-320] | 
23 | ≤ 300 | > 75 |  | CNS(=O)(=O)[C@@H]1CCN(C(=O)COc2cc(C)n([C@H](C)c3ccc(C#CC4CC4)cc3)c(=O)c2)C1 [Compound I-321] | 
24 | 300 to 1000 | > 75 |  | CNS(=O)(=O)[C@H]1CCN(C(=O)COc2cc(C)n([C@H](C)c3ccc(C#CC4CC4)cc3)c(=O)c2)C1 [Compound I-322] | 
25 | ≤ 300 | > 75 |  | CNS(=O)(=O)C1CN(C(=O)COc2cc(C)n([C@H](C)c3ccc(C#CC4CC4)cc3)c(=O)c2)C1 [Compound I-323] | 
26 | ≤ 300 | > 75 |  | Cc1cc(OCC(=O)N2CC3CCC(C2)O3)cc(=O)n1[C@H](C)c1ccc(C#CC2CC2)cc1 [Compound I-325] | 
27 | 300 to 1000 | > 75 |  | Cc1cc(OCC(=O)N2CC[C@@H](S(=O)(=O)N(C)C)C2)cc(=O)n1[C@H](C)c1ccc(C#CC2CC2)cc1 [Compound I-334] | 
28 |  | > 75 |  | Cc1cc(OCC(=O)N2CC[C@H](NS(C)(=O)=O)C2)cc(=O)n1[C@H](C)c1ccc(C#CC2CC2)cc1 [Compound I-335] | 
29 |  | > 75 |  | Cc1cc(OCC(=O)N2CC[C@@H](NS(C)(=O)=O)C2)cc(=O)n1[C@H](C)c1ccc(C#CC2CC2)cc1 [Compound I-336] | 
30 |  |  | > 75 | Cc1cc(OCC(=O)N2CC[C@H](N(C)S(C)(=O)=O)C2)cc(=O)n1[C@H](C)c1ccc(C#CC2CC2)cc1 [Compound I-337] | 
31 |  |  | > 75 | Cc1cc(OCC(=O)N2CC[C@@H](N(C)S(C)(=O)=O)C2)cc(=O)n1[C@H](C)c1ccc(C#CC2CC2)cc1 [Compound I-338] | 
32 | ≤ 300 | > 75 |  | Cc1cc(OCC(=O)N2CCCCC2)cc(=O)n1[C@H](C)c1ccc(C#CC2CC2)cc1 [Compound I-341] | 
33 | 300 to 1000 |  | > 75 | Cc1cc(OCC(=O)N2CC(C)(C)C2)cc(=O)n1[C@H](C)c1ccc(C#CC2CC2)cc1 [Compound I-342] | 
34 | 1000 to 3000 | > 75 |  | Cc1cc(OCC(=O)N2CC(C)(C#N)C2)cc(=O)n1[C@H](C)c1ccc(C#CC2CC2)cc1 [Compound I-343] | 
35 | ≤ 300 | > 75 |  | Cc1cc(OCC(=O)N2CC3(CC3)C2)cc(=O)n1[C@H](C)c1ccc(C#CC2CC2)cc1 [Compound I-344] | 
36 | ≤ 300 |  | > 75 | Cc1cc(OCC(=O)N2CC(C)(O)C2)cc(=O)n1[C@H](C)c1ccc(C#CC2CC2)cc1 [Compound I-345] | 
37 |  |  | > 75 | Cc1cc(OCC(=O)N2CC(C)OC(C)C2)cc(=O)n1[C@H](C)c1ccc(C#CC2CC2)cc1 (stereo partly shown) [Compound I-348] | 

Source: patent US20260055117A1, “SUBSTITUTED PYRIDONE GPR84 ANTAGONISTS AND USES THEREOF” (Liminal BioSciences Limited, priority 2022, published 2026)
